Test results published in patent US9090549B2, “1,4-naphthoquinones derivatives and therapeutic use thereof” (CENTRE NATIONAL DE LA RECHERCHE SCIENTIFIQUE (C.N.R.S.), priority 2008, dated 2015).
Like-named read-outs stand apart in the source and are kept apart here.

Assays:
[1] = biological target: T1, human glutathione reductase (hGR) (Homo sapiens, UniProt P00390); test: Inhibition of human glutathione reductase under steady-state conditions; type: biochemical; details: pH 6.9, 25° C., 1 mM GSSG, 100 μM NADPH
T1 sequence (P00390 44-522): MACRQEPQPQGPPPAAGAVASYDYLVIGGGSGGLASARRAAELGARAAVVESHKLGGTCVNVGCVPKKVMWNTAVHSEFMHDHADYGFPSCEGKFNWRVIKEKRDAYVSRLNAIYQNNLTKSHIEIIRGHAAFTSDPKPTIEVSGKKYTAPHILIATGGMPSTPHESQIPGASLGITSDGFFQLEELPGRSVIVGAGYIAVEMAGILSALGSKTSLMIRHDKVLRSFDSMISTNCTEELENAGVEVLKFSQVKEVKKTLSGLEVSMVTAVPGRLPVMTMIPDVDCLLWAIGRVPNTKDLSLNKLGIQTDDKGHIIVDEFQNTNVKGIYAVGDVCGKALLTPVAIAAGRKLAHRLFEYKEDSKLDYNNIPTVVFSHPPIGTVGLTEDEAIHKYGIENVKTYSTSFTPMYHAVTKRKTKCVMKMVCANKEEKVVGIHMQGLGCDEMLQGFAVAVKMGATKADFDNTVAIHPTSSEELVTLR

[2] = biological target: T2, P. falciparum glutathione reductase (PfGR) (Plasmodium falciparum, UniProt Q94655); test: 1,4-Naphthoquinone reductase activity of P. falciparum glutathione reductase; type: biochemical; details: with respect to menadione
T2 sequence (Q94655 2-500 limits assumed): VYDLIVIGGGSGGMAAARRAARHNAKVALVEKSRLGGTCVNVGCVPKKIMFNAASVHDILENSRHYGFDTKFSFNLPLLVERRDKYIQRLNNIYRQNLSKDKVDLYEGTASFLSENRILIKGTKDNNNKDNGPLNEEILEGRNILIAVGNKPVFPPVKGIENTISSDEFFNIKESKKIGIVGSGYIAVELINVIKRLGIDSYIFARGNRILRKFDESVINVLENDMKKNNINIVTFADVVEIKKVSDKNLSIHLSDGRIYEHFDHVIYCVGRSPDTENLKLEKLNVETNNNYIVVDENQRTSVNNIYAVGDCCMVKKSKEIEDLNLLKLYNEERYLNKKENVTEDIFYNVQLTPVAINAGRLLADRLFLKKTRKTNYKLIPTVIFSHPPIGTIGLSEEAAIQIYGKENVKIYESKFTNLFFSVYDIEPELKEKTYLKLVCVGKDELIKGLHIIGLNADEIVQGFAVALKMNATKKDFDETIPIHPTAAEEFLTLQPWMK
Experimental: The reduction assay mixture consisted of 100 mM potassium phosphate buffer pH 6.9, 200 mM KCl, 1 mM EDTA and 100 μM NADPH in a total volume of 1 mL. 1,4-naphthoquinone reductase activity was determined by recording the initial velocities in the presence of increasing naphthoquinone concentrations (0-300 μM). […] For the determination of KM and Vmax values, the steady-state rates were fitted by using nonlinear regression analysis software (Kaleidagraph) to the Michaelis-Menten equation. From these values, the turnover number kcat and the catalytic efficiency kcat/KM were calculated.

[3] = biological target: T2, P. falciparum glutathione reductase (PfGR); test: biochemical
Experimental: The standard assay was conducted at 25° C. in a 1 mL-cuvette. The assay mixture contained 100 μM NADPH and 1 mM GSSG in GR buffer (100 mM potassium phosphate buffer, 200 mM KCl, 1 mM EDTA, pH 6.9). […] Inhibitor stock solutions were prepared in 100% DMSO. 1% DMSO concentration was kept constant in the assay cuvette. The reaction was started by adding enzyme (8 mU human GR, 6.5 mU P. falciparum GR) and initial rates of NADPH oxidation were monitored at 340 nm (ε340 nm=6.22 mM^−1 cm^−1).

P. falciparum 3D7 = test: microbe, parasite or virus in culture; details: Plasmodium falciparum, 3D7, 48 h
Experimental: (§4) Twelve parasite strains or isolates from a wide panel of countries (Africa (3D7), Brazil (Bre), Cambodia (K2 and K14), Cameroon (FCM29), Djibouti (Vol1), the Gambia (FCR3), Indochina (W2), Niger (L1), Senegal (8425), Sierra Leone (D6), and Uganda (PA)) were maintained in culture in RPMI 1640 (Invitrogen, Paisley, United Kingdom), supplemented with 10% human serum (Abcys S.A. Paris, France) and buffered with 25 mM HEPES and 25 mM NaHCO3. Parasites were grown in A-positive human blood under controlled atmospheric conditions that consists of 10% O2, 5% CO2 and 85% N2 at 37° C. with a humidity of 95%.
(§5) FQ and synthetic compounds were resuspended and then diluted in RPMI-DMSO (99 v/1 v) to obtain final concentration ranged from 0.125 to 500 nM. […]
(§6) For in vitro isotopic microtests, 25 μL/well of antimalarial drug and 200 μL/well of the parasitized red blood cell suspension (final parasitemia, 0.5%; final hematocrit, 1.5%) were distributed into 96 well plates. Parasite growth was assessed by adding 1 μCi of tritiated hypoxanthine with a specific activity of 14.1 Ci/mmol (Perkin-Elmer, Courtaboeuf, France) to each well at time zero. […] Radioactivity incorporated by the parasites was measured with a scintillation counter (Top Count; Perkin-Elmer).
(§7) The IC50 value was determined by non-linear regression analysis of log-based dose-response curves (Riasmart™, Packard, Meriden, USA).

Pf H = test: microbe, parasite or virus in culture; details: Plasmodium falciparum, read-out: IC50 against Pf H
[4] = test system: P. falciparum chloroquine sensitive strain 3D7; test: 3D7 growth inhibition, 3H-hypoxanthine assay; type: cell-based, Plasmodium falciparum; details: read-out: IC50 against Pf 3D7
Experimental: (§1) The IC50 values against Pf-GHA and MRC-5 were determined by using the less sensitive colorimetric NBT-based lactate dehydrogenase assay (Makler et al, Am. J. Trop. Med. Hyg. 1993, 48 (6), 739-741) based on redox-reactions.
(§2) Parasite Cultures. […] P. falciparum in vitro culture was carried out using standard protocols (Trager et al, 1976 Science, 193, 673-675) with modifications. Briefly, parasites were maintained in tissue culture flasks in human A Rh+ erythrocytes at 5% hematocrit in RPMI 1640 supplemented with 25 mM HEPES, 24 mM NaHCO3, 0.2% (w/v) glucose, 0.03% L-glutamine, 150 μM hypoxanthine, and 0.5% Albumax II® (Invitrogen) in a 5% CO2/air mixture at 37° C., and the medium was changed daily.
(§3) In Vitro Antiparasitic Bioassays. Drug susceptibility of P. falciparum was studied using a modified method (Cameron et al, 2004 J. Biol. Chem. 279, 31429-31439) of the protocol described previously (Desjardins et al, 1979). All assays included CQ diphosphate (Sigma, UK) as a standard and control wells with untreated infected and uninfected erythrocytes. IC50 values were derived by sigmoidal regression analysis (Microsoft Xlfit™).

Pf-GHA = Pf-GHA growth inhibition, colorimetric NBT-based lactate dehydrogenase assay; type: cell-based; details: Plasmodium falciparum, 72 h, read-out: IC50 against Pf-GHA
Experimental: as §1
In Vitro Antiparasitic Bioassays. The strain is maintained in RPMI-1640 medium supplemented with 0.37 mM hypoxanthine, 25 mM HEPES, 25 mM NaHCO3, and 10% O^+ human serum together with 2-4% washed human O^+ erythrocytes. All cultures and assays are conducted under an atmosphere of 4% CO2, 3% O2 and 93% N2. Assays are performed in 96-well microtiter plates, each well containing 10 μL of the watery compound dilutions together with 190 μL of the malaria parasite inoculum (1% parasitaemia, 2% HCT). After 72 h incubation, plates are frozen and stored at −20° C. After thawing, 20 μL of each well is transferred into another plate together with 100 μL Malstat reagent and 20 μL of 1/1 mixture of PES (phenazine ethosulfate, 0.1 mg/mL) and NBT (Nitro Blue Tetrazolium Grade III, 2 mg/mL). Change in colour is measured spectrophotometrically at 655 nm. The results are expressed as % reduction in parasitaemia compared to control wells. Compounds are treated at 5 concentrations (64-16-4-1 and 0.25 μM or μg/mL).

[5] = test system: P. falciparum multidrug-resistant strain Dd2; test: Dd2 growth inhibition, 3H-hypoxanthine assay; type: cell-based, Plasmodium falciparum; details: Plasmodium falciparum, DD2, read-out: IC50 against Dd2
Experimental: The IC50 was tested by standard in vitro antiproliferation assays (Desjardins et al, 1979 Antimicrob. Agents Chemother 1979, 16, 710-718). Infected erythrocytes in ring stage (0.5% parasitemia, 2.5% hematocrit) in 96-well plates were exposed to the compounds for 48 h and then to radioactive hypoxanthine for 24 h. The amount of radioactivity in precipitable material served as an index of cell proliferation.

[6] = test system: P. falciparum chloroquine resistant strain K1; test: K1 growth inhibition, 3H-hypoxanthine assay; type: cell-based, Plasmodium falciparum; details: read-out: IC50 against Pf K1
Experimental: as §1, §2, §3

P. berghei ANKA = test: In vivo 4-day suppressive test in P. berghei-infected mice; set-up: species or system Plasmodium berghei; details: for reduction of the parasitemia: Plasmodium Berghei ANKA-infected CD1 mice
Experimental: The in vivo tests in the mouse model were done according to a standard protocol (Peters et al Handbook of Animal Models of Infection; Academic Press, London, 1999; pp. 756-771). […] […] For administration, compounds were freshly prepared in 10% DMSO in sterile phosphate-buffered saline the day of use. Two hours post-infection mice received the first treatment by the intraperitoneal route. Mice were further treated on days +1-3. Blood films from tail blood were prepared on day +4, and parasitaemia was determined by microscopic examination of Giemsa-stained blood films. […] […] Mice were treated and levels of parasitemia determined as described.

P. falciparum FCM29 = test: microbe, parasite or virus in culture; details: Plasmodium falciparum, 48 h
Experimental: as §4, §5, §6, §7

methemoglobin(Fe3+) = methemoglobin(Fe3+) (Homo sapiens, UniProt P68871+P69905); test: Redox-cycling of methemoglobin(Fe3+) into oxyhemoglobin(Fe2+) with NADPH/GR system; type: biochemical; details: 100 μM MetHb, NADPH, human GR
Chain of methemoglobin(Fe3+) (P69905 2-142 limits assumed): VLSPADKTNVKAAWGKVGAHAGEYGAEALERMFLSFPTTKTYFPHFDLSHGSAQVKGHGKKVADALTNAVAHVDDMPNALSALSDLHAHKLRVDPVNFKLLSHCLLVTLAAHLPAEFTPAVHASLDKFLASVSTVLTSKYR
Chain of methemoglobin(Fe3+) (P68871 2-147 limits assumed): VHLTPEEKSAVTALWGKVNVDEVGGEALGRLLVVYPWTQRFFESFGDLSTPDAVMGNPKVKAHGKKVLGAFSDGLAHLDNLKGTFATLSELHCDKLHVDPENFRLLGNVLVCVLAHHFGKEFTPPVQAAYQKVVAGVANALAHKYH
Description: Since FPIX(Fe^2+) is an inhibitor of hematin polymerization, compounds displaying the ability to reduce FPIX(Fe^3+) into FPIX(Fe^2+) might synergistically contribute with GR inhibition to increased oxidative stress in infected-red blood cells. To evaluate the redox-cycling activity of FPIX(Fe^3+) into FPIX(Fe^2+) we set up an assay using the naphthoquinone, the glutathione reductase/NADPH-based system to regenerate the dihydronaphthoquinone continuously and methemoglobin(Fe^3+) (MetHb). The UV-spectrum of MetHb between 300 nm and 700 nm is characterized by a maximal absorbance at 405 nm and a broad band centered at around 630 nm. […] We used 20 μM methylene blue as positive control of this redox-cycling activity.
In an Eppendorf tube containing 6.4 mg MetHb dissolved in 885 μL GR buffer (47 mM potassium phosphate buffer pH 6.9, 200 mM KCl, 100 mM EDTA), 10 μL 20 mM P_TM25 dissolved in DMSO and 100 μL NADPH dissolved in GR buffer were added. The reaction was started by the addition of 5 μL human GR and then incubated at 37° C. In a 1 mL cuvette 20 μL of the reaction mixture was diluted with 980 μL GR buffer and a UV-spectra between 300 nm and 700 nm was done after 5 min, 10 min, 20 min and 30 min incubation time. The final concentrations in the reaction mixture were 100 μM MetHb, 200 μM P_TM25, 400 μM NADPH and […] hGR, final DMSO concentration 1%.
Spectra were measured after 5 min (blue), 10 min (black), 20 min (green) and 30 min (red).

[7] = biological target: T2, P. falciparum glutathione reductase (PfGR); details: menadione against PfGR, Biot et al 2004; cited from earlier work
[8] = biological target: T2, P. falciparum glutathione reductase (PfGR); details: menadione reference, Bauer et al 2006; cited from earlier work
[9] = biological target: T1, human glutathione reductase (hGR); details: menadione reference, Bauer et al 2006; cited from earlier work

## CC1=C(C(O)c2ccc(Br)cc2)C(=O)c2ccccc2C1=O (centres unmarked) [P_TM23, 2-[(4-Bromo-phenyl)-hydroxy-methyl]-3-methyl-[1,4]naphthoquinone]
[1]
  IC50: 1300 nM
[2]
  substrate behaviour from catalytic efficiencies kcat/KM: very effective substrates
[3]
  IC50: 4500 nM
other
  melting point: 61 to 62 °C

## CCN(CC)CCCC(C)Nc1ccnc2cc(Cl)ccc12 (centres unmarked) [chloroquine, reference compound]
P. falciparum 3D7; read-out: IC50 against strain 3D7
  IC50: 21.3 nM
P. falciparum 3D7; read-out: IC90 against strain 3D7
  IC90: 40.4 nM
Pf H
  IC50: 217 nM
[4]
  IC50: ~20 nM
Pf-GHA
  IC50: 50 nM
[5]
  IC50: 291 nM
[6]
  IC50: ~1000 nM
P. berghei ANKA; 1.0 mg/kg
  reduction of the parasitemia: 2.5%
P. berghei ANKA; 3.0 mg/kg
  reduction of the parasitemia: 16.6%
P. berghei ANKA; 10 mg/kg i.p.
  inhibition of parasitaemia: 98.9%
P. berghei ANKA; 10.0 mg/kg
  reduction of the parasitemia: 94.9%
P. berghei ANKA; p.o. at 10 mg/kg/day, positive control
  inhibition of parasitaemia: complete inhibition
P. falciparum FCM29; read-out: IC50 against strain FCM29
  IC50: 879 nM
P. falciparum FCM29; read-out: IC90 against strain FCM29
  IC90: 1240 nM

## CC1=CC(=O)c2ccccc2C1=O [menadione]
methemoglobin(Fe3+)
  concentration at which the shift of maximal absorbance of MetHb from 405 to 410 nm starts being visible: 50 µM
[7]
  Km: 82.2 µM
  kcat: 0.16 s⁻¹
[8]
  IC50: 42000 nM
[9]
  IC50: 27500 nM
